Results reported in the supplement of paper PMC10307832.

Columns and labels:
Test in all cases: relative viability (nuclei count vs DMSO), 5 days (fraction); higher = more cells survive
TGX 221 + Lapatinib = compound: CC1=CN2C(=O)C=C(N=C2C(=C1)C(C)NC3=CC=CC=C3)N4CCOCC4 [TGX 221] + CS(=O)(=O)CCNCc1ccc(-c2ccc3ncnc(Nc4ccc(OCc5cccc(F)c5)c(Cl)c4)c3c2)o1 [Lapatinib] (partner 2 µM)
Outline: (§1)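 Values are medians from duplicate plates. Each reflects relative viability, defined as the nuclei count of treated wells over that of vehicle wells. Lung cancer cell lines in 1536-well plates were pin-tool dosed one day after seeding with one drug alone or with a fixed anchor-drug dose plus five library-drug doses (not always all listed) in √10 steps, then fixed, stained and imaged at 4× after 5 days.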

[1] = compound: C1=CC=C(C(=C1)C2=CC=C(C=C2)C3=CSC4=C3C(=C(C(=O)N4)C#N)O)O + CC(=O)c1c(C)c2cnc(Nc3ccc(N4CCNCC4)cn3)nc2n(C2CCCC2)c1=O [Palbociclib] (partner 0.5 µM)
Outline: as §1

[2] = compound: C1=CC=C(C(=C1)C2=CC=C(C=C2)C3=CSC4=C3C(=C(C(=O)N4)C#N)O)O + CS(=O)(=O)N1CCN(Cc2cc3nc(-c4cccc5[nH]ncc45)nc(N4CCOCC4)c3s2)CC1 [Pictilisib] (partner 1 µM)
Outline: as §1

TGX 221 + Olaparib = compound: CC1=CN2C(=O)C=C(N=C2C(=C1)C(C)NC3=CC=CC=C3)N4CCOCC4 [TGX 221] + O=C(c1cc(Cc2n[nH]c(=O)c3ccccc23)ccc1F)N1CCN(C(=O)C2CC2)CC1 [Olaparib] (partner 8 µM)
Outline: as §1

Cell Line | relative viability (TGX 221 + Lapatinib; first compound 0.08 µM) | relative viability (TGX 221 + Lapatinib; first compound 0.253 µM) | relative viability (TGX 221 + Lapatinib; first compound 0.8 µM) | relative viability (TGX 221 + Lapatinib; first compound 2.53 µM) | relative viability (TGX 221 + Lapatinib; first compound 8 µM) | relative viability ([1]; first compound 0.08 µM) | relative viability ([1]; first compound 0.253 µM) | relative viability ([1]; first compound 0.8 µM) | relative viability ([1]; first compound 2.53 µM) | relative viability ([1]; first compound 8 µM) | relative viability ([2]; first compound 0.08 µM) | relative viability ([2]; first compound 0.253 µM) | relative viability ([2]; first compound 0.8 µM) | relative viability ([2]; first compound 2.53 µM) | relative viability ([2]; first compound 8 µM) | relative viability (TGX 221 + Olaparib; first compound 0.08 µM) | relative viability (TGX 221 + Olaparib; first compound 0.253 µM) | relative viability (TGX 221 + Olaparib; first compound 0.8 µM) | relative viability (TGX 221 + Olaparib; first compound 2.53 µM) | relative viability (TGX 221 + Olaparib; first compound 8 µM)
H3255 | 0.301 | 0.225 | 0.24 | 0.277 | 0.211 | 0.311 | 0.346 | 0.294 | 0.31 | 0.319 | 0.483 | 0.514 | 0.447 | 0.536 | 0.467 | 0.508 | 0.536 | 0.561 | 0.547 | 0.499
HARA | 0.788 | 0.722 | 0.707 | 0.662 | 0.766 | 0.228 | 0.211 | 0.218 | 0.234 | 0.279 |  | 0.668 | 0.449 | 0.392 | 0.442 | 0.658 | 0.917 | 0.868 | 0.629 | 0.711
HCC-15 | 0.842 | 0.8 | 0.821 | 0.823 | 0.861 | 0.786 | 0.867 | 0.766 | 0.897 | 0.617 | 0.777 | 0.767 | 0.734 | 0.74 | 0.777 | 0.641 | 0.728 | 0.756 | 0.704 | 0.719
HCC-44 | 1 | 0.982 | 0.975 | 0.984 | 1.05 | 1.08 | 1.05 | 0.995 | 0.979 | 0.964 | 0.549 | 0.717 | 0.601 | 0.556 | 0.605 | 1 | 1.04 | 1.05 | 1.08 | 1
HCC-78 | 0.702 | 0.699 |  | 0.277 | 0.794 | 0.463 | 0.477 | 0.45 | 0.602 | 0.413 | 0.169 | 0.286 | 0.205 | 0.192 | 0.196 | 0.801 | 0.69 | 0.753 | 0.618 | 0.623
HCC-366 | 1.02 | 1 | 0.875 | 1.04 | 1.04 |  | 0.371 | 0.357 | 0.509 | 0.395 | 0.196 | 0.154 | 0.0996 | 0.174 | 0.164 | 0.331 | 0.303 | 0.407 | 0.344 | 0.357
HCC-827 | 0.187 | 0.205 | 0.2 | 0.191 | 0.205 | 0.492 | 0.518 | 0.479 | 0.475 | 0.524 | 1.11 | 1.05 | 0.819 | 0.996 | 0.986 | 0.647 | 0.55 | 0.615 | 0.526 | 0.0337
IA-LM | 0.783 | 0.797 | 0.979 | 1.01 | 0.612 |  |  |  |  |  | 0.273 | 0.452 | 0.287 | 0.369 | 0.238 | 0.866 | 0.857 | 0.846 | 0.858 | 0.799
LCLC-103H |  |  |  |  |  | 0.445 | 0.407 | 0.451 | 0.491 | 0.449 | 0.544 | 0.664 | 0.541 | 0.554 | 0.576 | 0.747 | 0.738 | 0.793 | 0.764 | 0.717
NCI-H441 |  |  |  |  |  | 0.208 | 0.21 | 0.184 | 0.275 | 0.21 | 0.437 | 0.596 | 0.593 | 0.546 | 0.452 | 0.578 | 0.571 | 0.515 | 0.524 | 0.589
NCI-H522 |  |  |  |  |  | 0.943 | 1.06 | 0.916 | 0.944 | 0.881 |  |  |  |  |  | 0.563 | 0.628 | 0.729 | 0.616 | 0.645
NCI-H596 | 1.13 | 1.09 | 1.03 | 0.993 | 0.958 |  |  |  |  |  | 0.178 | 0.407 | 0.395 | 0.373 | 0.378 | 0.662 | 0.675 | 0.746 | 0.744 | 0.572
NCI-H1299 | 0.987 | 0.99 | 0.978 | 1.03 | 0.894 |  |  |  |  |  | 1.04 | 0.858 | 0.826 | 0.771 | 0.594 | 0.971 | 0.952 | 1.02 | 1.03 | 0.943
NCI-H1563 | 0.922 | 0.871 | 0.791 | 0.851 | 0.796 |  |  |  |  |  | 0.629 | 0.655 | 0.689 | 0.703 | 0.637 |  |  |  |  | 
NCI-H1648 |  |  |  |  |  |  | 0.282 | 0.319 | 0.261 | 0.274 |  |  |  |  |  |  | 0.452 | 0.802 | 0.764 | 0.842
NCI-H1703 | 1.02 | 0.974 | 0.95 | 0.859 | 0.757 |  |  |  |  |  | 0.236 | 0.292 | 0.25 | 0.259 | 0.24 | 0.449 | 0.462 | 0.389 | 0.396 | 0.255
NCI-H2342 |  |  |  |  |  | 0.538 | 0.513 | 0.538 | 0.488 | 0.529 |  |  |  |  |  | 0.424 | 0.417 | 0.404 | 0.466 | 0.463
SW 900 |  |  |  |  |  |  | 0.621 | 0.638 | 0.518 | 0.429 |  |  |  |  |  |  | 0.787 | 0.701 | 0.578 | 0.562
